Laboratory results reported in ChEMBL document CHEMBL1201862, “PubChem BioAssay data set” (2004).
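48-hour exposure; five concentrations; linearly interpolated endpoints. Here, GI50 denotes the concentration required for 50% inhibition of growth.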 Calls of active or inactive are those of the source. Rule as the data show it: active = GI50 up to about 1.1 µM and inactive = higher.

Legend:
Assay in all cases: inhibition of tumour cell growth, NCI panel, 48 h
[1] = test system: EKVX
[2] = test system: HL-60
[3] = test system: SF-539
[4] = test system: CCRF-CEM
[5] = test system: NCI-H226
[6] = test system: TK-10
[7] = test system: M14
[8] = test system: SK-MEL-28
[9] = test system: CAKI-1
[10] = test system: SK-OV-3
[11] = test system: HT-29
[12] = test system: HCC 2998
[13] = test system: SNB-19
[14] = test system: K562
[15] = test system: RPMI-8226

Measured: GI50

COc1nc2c(nc(N)n2C2OC(CO)C(O)C(O)C2O)c(=O)[nH]1 (configuration not stated)
inactive: [1] > 100 µM | [2] > 100 µM | [3] > 100 µM | [4] > 100 µM | [5] > 100 µM | [6] > 100 µM | [7] > 100 µM | [8] > 100 µM | [9] > 100 µM | [10] > 100 µM | [11] > 100 µM | [12] > 100 µM | [13] > 100 µM | [14] > 100 µM

CC(=O)NNc1nc(C)c(C(=O)/C=C/c2ccc(NC(C)=O)cc2)s1
inactive: [1] 71.3 µM | [2] > 100 µM | [3] > 100 µM | [4] > 100 µM | [6] > 100 µM | [15] > 100 µM | [8] > 100 µM | [9] > 100 µM | [10] > 100 µM | [11] > 100 µM | [12] > 100 µM | [13] > 100 µM | [14] > 100 µM

COc1ccc(OC)c2c(C(=O)O)c(Cc3ccccc3)ccc12
inactive: [1] > 100 µM | [2] > 100 µM | [4] > 10 µM | [5] > 100 µM | [6] > 100 µM | [7] > 100 µM | [8] > 100 µM | [9] > 100 µM | [10] > 100 µM | [11] > 100 µM | [12] > 100 µM | [13] > 100 µM | [14] > 100 µM

C/C(CC(=O)NCCc1ccccc1)=N\NC(=O)C[n+]1ccccc1
inactive: [1] > 100 µM | [2] > 100 µM | [3] > 100 µM | [4] > 10 µM | [5] > 100 µM | [6] > 100 µM | [15] > 100 µM | [7] > 100 µM | [8] > 100 µM | [10] > 100 µM | [11] > 100 µM | [12] > 100 µM | [14] > 100 µM

COC1C=C(Nc2cccc(Cl)c2)C(=O)C1 (configuration not stated)
inactive: [1] 29.4 µM | [2] 36 µM | [3] 58.2 µM | [4] 63.1 µM | [5] 36.4 µM | [6] > 100 µM | [7] > 100 µM | [8] > 100 µM | [9] 50.9 µM | [10] 48.8 µM | [11] 65.3 µM | [12] 53.8 µM | [13] 64.3 µM | [14] 41.6 µM

O=c1cc(-c2ccccc2)[nH]c2c(Cl)cccc12
inactive: [1] 49.5 µM | [2] 9.12 µM | [3] 15.3 µM | [4] 16.1 µM | [5] 9.55 µM | [6] > 100 µM | [15] 17 µM | [7] 9.31 µM | [8] > 100 µM | [11] 20.8 µM | [12] 14.8 µM | [13] 20.5 µM | [14] 2.77 µM

N#CC(C(=O)CCC(=O)Nc1ccc(Cl)cc1)c1ccccc1Cl (configuration not stated)
inactive: [1] > 100 µM | [2] > 100 µM | [3] > 100 µM | [4] > 100 µM | [5] > 100 µM | [6] > 100 µM | [15] > 100 µM | [7] 47.8 µM | [8] > 100 µM | [9] 89.3 µM | [10] > 100 µM | [13] > 100 µM | [14] 18.4 µM

O=C(O)CC(O)(c1ccccc1C(=O)O)c1cccc2ccccc12 (configuration not stated)
inactive: [1] > 100 µM | [2] > 100 µM | [3] > 100 µM | [4] > 100 µM | [5] > 100 µM | [6] > 100 µM | [15] > 100 µM | [7] > 100 µM | [8] > 100 µM | [9] > 100 µM | [10] > 100 µM | [11] > 100 µM | [13] > 100 µM | [14] > 100 µM
